Data taken from US20240083949A1, “CELL PENETRATING PEPTIDE COMPOSITIONS AND METHODS THEREOF” (The Regents of the University of California, priority 2022, published 2024).
Entries after “also recorded” stand apart in the source; their conditions may differ. Starred links: 1 amine or outer side, 2 acyl side, 3 side chain; linkers in the order of their positions; H or OH if unused. Positions of bridges follow the written chain, without caps; N, C: chain ends. Non-standard residues stand in square brackets, D forms with d. Residues, ends and D or L forms follow the SMILES beside them. Triazole bridges read from a SMILES are 1,4-linked. ξ: configuration not given here. *: point of attachment. RhodamineB = CCN(CC)c1ccc2c(-c3ccccc3C(=O)*)c3ccc(=[N+](CC)CC)cc-3oc2c1; X1 = Nc1ccn([C@@H]2O[C@H](COC(=O)CCC(=O)*)[C@@H](O)C2(F)F)c(=O)n1; Lys(N3) = [N-]=[N+]=NCCCC[C@H](N)C(=O)O; ξLys(N3) = [N-]=[N+]=NCCCCC(N)C(=O)O; NMeGABA = CN(CCCC(=O)[*:2])[*:1]; dPra = C#CC[C@@H](N)C(=O)O; Pra = C#CC[C@H](N)C(=O)O

Assays:
[1] = test system: U87 cells; assay: Confocal imaging of Dye-EPP uptake in U87 cells; format: cell-based, human; settings: RB-tagged EPPs, U87 cells, confocal imaging, ranking among EPP1-7
Experimental: (§1) Confocal Imaging experiments. To image the cells, a Zeiss 880 inverted confocal laser scanning microscope (Carl Zeiss, Germany) was used. Image acquisition and analyses were carried out using the manufacturer's software (ZEN, Carl Zeiss). Quantification of fluorescence intensity in single cells was performed using Fiji software.
Dye-EPP incubation. For general incubation, 300 k U87 cells were seeded in full medium containing 10% FBS and 1% PS in a 35×10 mm petri dish. The cells were incubated overnight in full medium. Stock solution of Dye-EPPs were made in DMSO to reach a concentration of 500 μM. Fresh cell culture medium was used to dilute the stock solution to 500 nM and replace the old medium on day 2. Cells were incubated with RB-EPPs for different time periods, followed by a one-time wash with phenol-free fresh culture medium before measurements.
Concentration gradient experiment. U87 Cells were incubated with RB-EPP 6 at different concentrations (20 nM, 200 nM, 2 μM, 20 μM, 50 μM and 100 μM). After wash with fresh medium once cells were examined by confocal imaging.

[2] = Octanol-water partition assay; format: physicochemical
Experimental: Octanol-water partition assay. For each RB-EPP, pre-mix 250 μl of octanol with 250 μl of water in a 1.5 ml centrifuge tube. 2 μl of RB-EPP was added to the solution at the concentration of 500 μM. After vortex the mixture, centrifuge at the highest speed for 10 min to separate the octanol and water phases. Samples were collected from both phases and quantified by the Analytical HPLC separately.

[3] = test system: U87 cells; assay: Temperature control comparison experiment (RB-EPP6 uptake at 37° C. and 4° C.); format: cell-based, human; settings: 500 nM, 1 h
Experimental: as §1
Temperature control comparison experiment. U87 cells were kept in the cold room for half an hour before incubated with RB-EPP 6. After that, cells were incubated with RB-EPP 6 at 500 nM at 4° C. Cells in the control group were incubated at 37° C. After 1 h, cells were wash with fresh medium once respectively before confocal imaging.

[4] = Lipid binding assay; settings: liposomes, RB-EPP6 1 nM to 10 μM
Experimental: Lipid binding assay. 95% egg PC, 5% nitrobenzoxadiazole (NBD) were added to 1% cholesterol, PE, PG, ganglioside, SM and PA to make liposomes individually. RB-EPP 6 was diluted with HEPES buffer to different concentrations, ranging from 1 nM to 10 μM. For each lipid type, 400 μl liposomes of 50 μg/ml were added to 400 μl of each RB-EPP 6 concentration. The mixture was incubated at room temperature for 15 min. 80 μl of each condition was collected to measure the fluorescence intensity of NBD suing the Synergy H1 microplate reader.

[5] = test system: U87 cells; assay: Colocalization of RB-EPP6 with mEmerald-caveolin and mEmerald-clathrin; format: cell-based, human; settings: transfected U87 cells, confocal
Experimental: as §1
(§2) Plasmid transfection assays. 300 k U87 cells were seeded in the 35×10 mm dish for overnight culture. Plasmids (caveolin, 75 ng; clathrin, 100 ng; rab5, 100 ng; rab7a, 10 ng; caveolin-1 CRISPR/Cas9 KO, 3 μg; FIBCD1 CRISPR/Cas9 KO, 3 ug; Control CRISPR, 3 ug) were diluted with Plasmid Transfection Medium (sc-108062) to 50 μl. UltraCruz Transfection Reagent (Santa Cruz Biotechnology) was also diluted with Plasmid Transfection Medium to 50 μl. Plasmids and transfection reagent were mixed well and kept at room temperature for 20 min. Replace the cells with PS free medium and add the mixture to the cells, culture for another 24 h.

[6] = test system: U87 cells; assay: RB-EPP6 uptake after caveolin CRISPR knockout; format: cell-based, human; settings: data not shown
Experimental: as §2

[7] = test system: U87 cells; assay: Intracellular trafficking of EPP6 conjugates (endosome markers, organelle trackers, time series, EB staining); format: cell-based, human
Experimental: Time series experiment. U87 Cells were incubated with RB-EPP 6 at 500 nM for 1 h. After wash with fresh medium once, the cells were kept in the 5% CO2 incubator at 37° C. for different time durations (1 h, 2 h, 6 h and 24 h) before confocal imaging.
Organelle tracker colocalization experiment. Stock solution of trackers for mitochondria, lysosome and ER were diluted with cell culture medium into 100 nM, 500 nM and 4 μM respectively. RB-EPP 6 was added into each working solution at 500 nM. U87 cells were incubated with the both trackers and RB-EPP 6 for 1 h and then washed once before confocal imaging.
as §2
Ethidium bromide (EB) staining. U87 cells were incubated with 2 μg/ml EB with or without the conjugation of EPP6 for an hour, 3 hours and 6 hours respectively. After 1 h and the cells were washed with fresh phenol-free media once before confocal imaging.
Statistical analysis. Pearson's correlation coefficient was used to calculate correlation between RB and tracker channels in the organelle tracker experiment. Graph generation and statistical analyses were performed using Fiji software.

[8] = test system: U87; assay: Confocal microscopy for internalization of EPP6-GEM; format: cell-based, human; settings: 500 nM, U87 cells
Experimental: After purification of this conjugate, EPP6-GEM was dissolved in DMSO and diluted to 500 nM in full media (DMEM) and administered to the immortalized glioblastoma cell line U87. These cells were monitored using Confocal Microscopy for internalization of the conjugate. FIGS. 11A-11C show three images of U87 cells with different combinations of dyes internalized. […] EPP6-GEM has been outfitted with a Rhodamine B dye. […] Cell viability experiments were carried out to determine if the conjugate can kill cells at a similar rate to the free drug or at an improved rate.

[9] = MDCK, MDCK monolayer, trans-well, three hours of incubation, 10 μM
Experimental: (§4) MDCK transwell assay. 200 k MDCK cells were seeded in 200 μl in complete growth media to the apical side of a transwell insert (12-well 8 μm pore size Transwell-65 mm). In addition, 1 ml complete growth media is added to the basolateral chamber. […] Incubate the plate for 2-3 days at 37° C. with 5% CO2. The electrical resistance of MDCK transwell inserts was measured using EVOM Epithelial Voltohmmeter to measure the integrity of tight junctions the following two days. On day 3, serum free media was used to wash both the apical (200 μl) and basolateral (1 ml) wells three times. Cells were kept in a 37° C./5% CO2 cell incubator equilibrating for 15 min.
(§5) The assay was carried out in both apical to basolateral and basolateral to apical direction. […] For the assay with apical to basolateral direction, the apical chamber was replaced with 200 μl testing compounds. For the assay with basolateral to apical direction, the basolateral chamber was replaced with 1 ml testing compounds. Both plates were incubated in the cell culture incubator for 3 h. After that, 80 μl of the samples were collected from each chamber for RB fluorescence intensity reading using a Synergy H1 microplate reader.

[10] = test system: MDCK cells; settings: MDCK monolayer, trans-well, three hours
Experimental: as §4, §5

[11] = test system: FIBCD1-KO U87 cell line; settings: 500 nM, FIBCD1-KO U87 cells, crystal violet
From the text: (§3) Crystal violet staining is a cell viability test used to determine if a drug or molecule is killing cells based on the difference in cell number from the untreated control. U87 cells are an adherent cell line if they are alive and healthy, they attach securely to the bottom of the petri dish. Herein we passaged U87 cells into a 96-well plate and made quadruplets for each concentration of the drug we planned to use. After staining the cells that remained after treatment with both the drug and the EPP6-GEM conjugate, the cells were then photographed with a cell phone and compared to the control wells (FIGS. 12A-13C).

[12] = test system: U87 cells; settings: 500 nM, crystal violet
From the text: as §3

Compound | ability to enter the cells (intracellular fluorescence) [1] | hydrophobicity (octanol partitioning) [2] | uptake at low temperature [3] | interaction with lipid components [4] | colocalization with mEmerald-caveolin [5] | colocalization with mEmerald-clathrin [5] | uptake after CRISPR caveolin [6] | localization in early endosomes (Rab5) ([7]; EGFP-Rab5, after 15-min) | trafficking into mitochondria or endoplasmic reticulum ([7]; MitoTracker, ERTracker) | localization in lysosomes (LysoTracker) ([7]; after 3 hours) | retention in Rab7a+ vesicles ([7]; after 4 hours) | remaining intracellular signal ([7]; after 24 hours) | endosomal escape to cytosol ([7]; imaging) | time to traffic into late endosomes ([7]; mEmerald-Rab7a) [min] | internalization (Rhodamine B signal) [8] | Papp [9] [×10⁻⁶ cm/s] | Papp relative to RB-TAT [10] | cell killing compared with free drug [11] | cell killing compared with free drug [12]
CCN(CC)c1ccc2c(-c3ccccc3C(=O)N(C)CCCC(=O)N[C@H]3Cc4cn(nn4)CCCC[C@@H](C(N)=O)NC(=O)[C@H](CO)NC(=O)[C@H](Cc4ccc(O)cc4)NC(=O)[C@H](Cc4ccc(O)cc4)NC(=O)[C@H](CO)NC(=O)[C@H](Cc4ccc(O)cc4)NC3=O)c3ccc(=[N+](CC)CC)cc-3oc2c1 [RB-EPP6, RB-cy(YSYYS)] (RhodamineB-[NMeGABA][Pra]YSYYS[Lys(N3)]-NH2; triazole 2-8; N-terminus and C-terminus assumed) | best performing | hydrophilic | no RB-EPP6 uptake; also recorded: no fluorescence signal in the cells | no appreciable interaction; also recorded: no significant interaction | significantly overlapped | no overlap | decreased | appeared in distinct Rab5-coated vesicles | did not traffic into the mitochondria or the endoplasmic reticulum | some RB-EPP6 signals appeared in lysosomes | a significant amount of RB-EPP6 remained inside Rab7a+vesicles | some signals remained | could escape from the endosomes and enter the cytosol | ≤ 30 | much higher signals | 5.25 | more than twice that of RB-TAT |  | 
CCN(CC)c1ccc2c(-c3ccccc3C(=O)N(C)CCCC(=O)N[C@@H](CCCCNC(=O)CCC(=O)OC[C@H]3O[C@@H](n4ccc(N)nc4=O)C(F)(F)[C@@H]3O)C(=O)N[C@@H]3Cc4cn(nn4)CCCCC(C(N)=O)NC(=O)[C@H](CO)NC(=O)[C@H](Cc4ccc(O)cc4)NC(=O)[C@H](Cc4ccc(O)cc4)NC(=O)[C@H](CO)NC(=O)[C@H](Cc4ccc(O)cc4)NC3=O)c3ccc(=[N+](CC)CC)cc-3oc2c1 (some centres unmarked) [EPP6-GEM] (RhodamineB-[NMeGABA]K(X1)[dPra]YSYYS[ξLys(N3)]-NH2; triazole 3-9) |  |  |  |  |  |  |  |  |  |  |  |  |  |  | some internalization is occurring |  |  | cannot perform significantly better than the free drug | can kill the cells more effectively than the free drug
